US8106055B2, “Substituted amide compounds” (Gruenenthal GmbH, priority 2007, dated 2012)

Tests used:
[1] = biological target: T1, human bradykinin 1 receptor (B1R) (Homo sapiens, UniProt P46663); experiment: Functional investigation on the human bradykinin 1 receptor (B1R), Ca2+ FLIPR assay in CHO K1 hB1R cells; assay type: cell-based; conditions: B1R antagonism human; test substance 10 μM; Ca2+ FLIPR, CHO K1 hB1R cells
T1 construct: expressed in transfected cells; host or cells: CHO K1 cells
T1 sequence (P46663 1-353): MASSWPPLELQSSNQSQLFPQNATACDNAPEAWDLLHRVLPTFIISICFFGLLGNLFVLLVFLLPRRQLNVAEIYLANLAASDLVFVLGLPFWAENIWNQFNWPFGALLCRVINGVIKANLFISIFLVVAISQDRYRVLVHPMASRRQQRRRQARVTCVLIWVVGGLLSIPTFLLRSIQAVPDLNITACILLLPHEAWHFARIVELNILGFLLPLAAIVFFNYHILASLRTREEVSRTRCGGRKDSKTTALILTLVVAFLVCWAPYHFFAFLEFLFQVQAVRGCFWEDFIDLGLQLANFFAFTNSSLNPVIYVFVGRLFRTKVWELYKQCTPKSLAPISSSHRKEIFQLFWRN
How it was run: (§1)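 Fluo-4 Ca2+ readout, peak fluorescence. Stable CHO K1 transfectants; compound pre-incubated 10-20 min, then EC80 agonist—Lys-Des-Arg9-BK for hB1R, Des-Arg9-BK for rB1R. % inhibition vs maximal inhibition; IC50 from multiple concentrations, duplicate/triplicate, ≥2 independent runs.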

[2] = biological target: T2, bradykinin 1 receptor (B1R) of the rat (Rattus norvegicus, UniProt P97583); experiment: Functional investigation on the rat bradykinin 1 receptor (B1R), Ca2+ FLIPR assay in CHO K1 rB1R cells; assay type: cell-based; conditions: B1R antagonism rat; test substance 10 μM; Ca2+ FLIPR, CHO K1 rB1R cells
T2 construct: expressed in transfected cells; host or cells: CHO K1 cells
T2 sequence (P97583 1-337): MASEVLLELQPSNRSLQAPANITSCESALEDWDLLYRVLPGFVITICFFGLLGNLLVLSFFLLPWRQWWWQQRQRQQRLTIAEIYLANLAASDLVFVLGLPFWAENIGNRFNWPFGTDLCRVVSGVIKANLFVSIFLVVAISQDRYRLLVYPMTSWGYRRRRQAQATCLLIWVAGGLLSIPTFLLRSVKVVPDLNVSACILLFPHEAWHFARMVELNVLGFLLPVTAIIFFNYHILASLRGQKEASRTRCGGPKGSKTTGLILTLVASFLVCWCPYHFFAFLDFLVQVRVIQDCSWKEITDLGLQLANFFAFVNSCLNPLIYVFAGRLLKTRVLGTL
How it was run: as §1

| SMILES | B1R Ant. h [10 μM] % Inhibition [1] [%] | B1R Ant. r [10 μM] % Inhibition [2] [%] |
| --- | --- | --- |
| COc1cc(C)c(S(=O)(=O)N(CCOCC(=O)NCCC2CCC(C(c3ccc(F)cc3)N(C)C)CC2)Cc2ccccc2)c(C)c1C (stereo not shown) [Example 554] | 23 | −11 |
| COc1ccc(S(=O)(=O)N2CCCCC2COCC(=O)NC2CCC(C(c3ccc(F)cc3)N(C)C)CC2)cc1OC (stereo not shown) [Example 555] | −14 | 0 |
| CN(C)C(CCc1ccccc1)C1CCC(CNC(=O)COCCN(C)S(=O)(=O)c2cccc(C(F)(F)F)c2)CC1 (stereo not shown) [Example 556] | 82 | 20 |
| CN(C)C(CCc1ccccc1)C1CCC(CNC(=O)COC2CCN(S(=O)(=O)c3ccc(Cl)cc3)C2)CC1 (stereo not shown) [Example 557] | 20 | 29 |
| CN(C)C(CCc1ccccc1)C1CCC(CNC(=O)COC2CCCN(S(=O)(=O)c3ccccc3)C2)CC1 (stereo not shown) [Example 558] | 14 | 12 |
| COc1ccc(S(=O)(=O)N2CCCCC2COCC(=O)NCC2CCC(C(CCc3ccccc3)N(C)C)CC2)cc1OC (stereo not shown) [Example 559] | 2 | −12 |
| COc1cc(C)c(S(=O)(=O)N(CCOCC(=O)NCC2CCC(C(c3ccc(Cl)cc3)N(C)C)CC2)Cc2ccccc2)c(C)c1C (stereo not shown) [Example 560] | 16 | −5 |
| COc1cc(C)c(S(=O)(=O)N2CCC(CCOCC(=O)NCCC3CCC(C(c4ccc(Cl)cc4)N(C)C)CC3)CC2)c(C)c1C (stereo not shown) [Example 561] | −1 | −12 |
| COc1cc(C)c(S(=O)(=O)N(CCOCC(=O)NCC2CCC(C(CCc3ccccc3)N(C)C)CC2)Cc2ccccc2)c(C)c1C (stereo not shown) [Example 562] | 91 | 23 |
| COc1cc(C)c(S(=O)(=O)N(CCOCC(=O)NCC2CCC(C(c3ccc(F)cc3)N(C)C)CC2)Cc2ccccc2)c(C)c1C (stereo not shown) [Example 563] | 54 | −16 |
| COc1cc(C)c(S(=O)(=O)N2CCC(OCC(=O)NCC3CCC(C(CCc4ccccc4)N(C)C)CC3)C2)c(C)c1 (stereo not shown) [Example 565] | 102 | 104 |
| COc1ccc(S(=O)(=O)N2CCC(OCC(=O)NCC3CCC(C(CCc4ccccc4)N(C)C)CC3)C2)cc1OC (stereo not shown) [Example 566] | 1 | 22 |
| CN(C)C(CCc1ccccc1)C1CCC(CNC(=O)COCCN(C)S(=O)(=O)c2ccc(OC(F)(F)F)cc2)CC1 (stereo not shown) [Example 567] | 75 | 42 |
| CN(C)C(c1ccc(F)cc1)C1CCC(CNC(=O)COC2CCN(S(=O)(=O)c3ccccc3)CC2)CC1 (stereo not shown) [Example 568] | −20 | 12 |
| COc1cc(C)c(S(=O)(=O)N(CCOCC(=O)NCCC2CCC(C(c3ccc(Cl)cc3)N(C)C)CC2)Cc2ccccc2)c(C)c1 (stereo not shown) [Example 569] | 14 | 9 |
| COc1ccc(S(=O)(=O)N2CCCCC2COCC(=O)NCC2CCC(C(CCc3ccccc3)N(C)C)CC2)cc1OC (stereo not shown) [Example 570] | −18 | 4 |
| COc1ccc(S(=O)(=O)N(C)CCOCC(=O)NCC2CCC(C(CCc3ccccc3)N(C)C)CC2)cc1OC (stereo not shown) [Example 571] | −10 | 15 |
| COc1ccc(S(=O)(=O)N2CCCC2COCC(=O)NCC2CCC(C(CCc3ccccc3)N(C)C)CC2)cc1 (stereo not shown) [Example 572] | 50 | 62 |
| CN(C)C(CCc1ccccc1)C1CCC(CNC(=O)COC2CCN(S(=O)(=O)c3ccccc3)C2)CC1 (stereo not shown) [Example 573] | −4 | 14 |
| CN(C)C(CCc1ccccc1)C1CCC(CNC(=O)COC2CCN(S(=O)(=O)c3ccc(F)cc3)C2)CC1 (stereo not shown) [Example 574] | 2 | 26 |
| CN(C)C(c1ccc(Cl)cc1)C1CCC(CCNC(=O)COCCN(C)S(=O)(=O)c2ccc(OC(F)(F)F)cc2)CC1 (stereo not shown) [Example 575] | −4 | 26 |
| COc1cc(C)c(S(=O)(=O)N(CCOCC(=O)NCCC2CCC(C(c3ccc(Cl)cc3)N(C)C)CC2)Cc2ccccc2)c(C)c1C (stereo not shown) [Example 576] | −6 | 3 |
| CN(C)C(CCc1ccccc1)C1CCC(CNC(=O)COC2CCN(S(=O)(=O)c3ccccc3)CC2)CC1 (stereo not shown) [Example 578] | −14 | 12 |
| CN(C)C(CCc1ccccc1)C1CCC(CNC(=O)COCCN(C)S(=O)(=O)c2c(Cl)cccc2Cl)CC1 (stereo not shown) [Example 580] | 95 | 44 |
| COc1ccc(S(=O)(=O)N2CCCCC2COCC(=O)NCCC2CCC(C(c3cccc(F)c3)N(C)C)CC2)cc1OC (stereo not shown) [Example 581] | 2 | 8 |
| CN(C)C(c1ccc(F)cc1)C1CCC(CNC(=O)COCCC2CCN(S(=O)(=O)c3ccccc3)CC2)CC1 (stereo not shown) [Example 583] | −27 | 20 |
| CN(C)C(c1ccc(Cl)cc1)C1CCC(CNC(=O)COCCC2CCN(S(=O)(=O)c3ccccc3)CC2)CC1 (stereo not shown) [Example 584] | −20 | 41 |
| CN(C)C(c1ccc(F)cc1)C1CCC(CCNC(=O)COCCN(C)S(=O)(=O)c2ccc(Cl)cc2Cl)CC1 (stereo not shown) [Example 586] | 95 | 76 |
| Cc1cc(C)c(S(=O)(=O)N(C)CCOCC(=O)NCCC2CCC(C(c3cccc(F)c3)N(C)C)CC2)c(C)c1 (stereo not shown) [Example 587] | −14 | 16 |
